In test [1] the test system is human hepatocellular carcinoma (HCC) cells. The arrangement: method as in Tsai and colleagues. To be noted: subtoxic concentrations (5–20 μM); ref Tsai and colleagues; cited from earlier work.
The test system of test [2] is HepG2: human liver hepatocellular carcinoma cells. The test can be described thus: MTT cytotoxicity assay on HepG2 cells. It is filed as cell-based. To be noted: for IC50: Homo sapiens, HepG2, MTT, 72 h incubation, n = 3, NA: noncytotoxic at the concentrations tested; for SI (HepG2): IC50 MRC-5/IC50 HepG2. Here is the method: (§1) Cytotoxicity was determined using the MTT colorimetric assay, and half-maximal inhibitory concentrations (IC50, μM) were obtained for all cell lines (Table ). The selectivity index (SI) was calculated as the ratio of IC50 MRC-5/IC50 cancer cell line. Doxorubicin was employed as a positive control due to its broad-spectrum clinical use, either alone or in combination, against hepatocellular, ovarian, cervical, and bladder cancers. −
(§2) In vitro biological assays were performed by using five human cell lines for cytotoxicity evaluation. HepG2 cells (ATCC HB-8065), derived from a human hepatocellular carcinoma of the liver (person), were cultured in Dulbecco’s modified Eagle medium (DMEM) supplemented with 5% fetal bovine serum (FBS), penicillin/streptomycin (100 IU/mL), and amphotericin B (5 μg/mL), in a humidified incubator with 5% CO2 at 37 °C. These cells were plated at a concentration of 2.0 × 10^4 cells/well in 96-well microplates. MRC-5 cells (ATCC CCL-171), derived from human lung fibroblasts of a […] fetus, were cultured under the same conditions and plated at 1.0 × 10^4 cells/well. T24 cells (ATCC HTB-4), established from a transitional cell carcinoma of the bladder (person), were also cultured under identical conditions and plated at a density of 1.0 × 10^4 cells/well. TOV-21G cells (ATCC CRL-11730), derived from a primary malignant ovarian adenocarcinoma (person), were maintained in DMEM with the same supplementation and environmental conditions and plated at 5.0 × 10^4 cells/well. […]
(§3) HeLa, HepG2, MRC-5, T24, and TOV-21G cells were suspended in a culture medium supplemented with 5% fetal bovine serum (FBS) and seeded into 96-well microplates. The plates were incubated under a humidified atmosphere containing 5% CO2 at 37 °C for 24 h, allowing for adherence and monolayer formation. , Eight serial dilutions of the test samples, previously solubilized in dimethyl sulfoxide (DMSO), were prepared in DMEM supplemented with 1% FBS, covering a concentration range from […], and the results were converted to […]. The volume of DMSO in each well was limited to a final concentration not exceeding 2%. Following monolayer formation, the culture medium was aspirated and replaced with 100 μL of the diluted test samples and 100 μL of DMEM containing 1% FBS. The plates were then incubated under the same atmospheric and temperature conditions.
(§4) Two hours prior to end point reading, 20 μL of MTT [3-(4,5-dimethylthiazol-2-yl)-2,5-diphenyltetrazolium bromide] solution (1.0 mg/mL in sterile phosphate-buffered saline, Sigma-Aldrich) was added to each well. The incubation period following sample addition varied according to the cell line: 24 h for MRC-5, 48 h for T24, and 72 h for HeLa, HepG2, and TOV-21G. After the appropriate incubation, absorbance was measured by using a VICTOR X3 microplate reader (PerkinElmer), and data were processed with WorkOut 2.5 software at a wavelength of 490 nm. Formazan formation, resulting from the MTT reduction by metabolically active cells, was used as an indirect measure of cell viability. The percentage of cytotoxicity was calculated using the equation % cytotoxicity = [(A – B)/A] × 100, where A is the optical density (OD4 9 0) of untreated control cells and B is the OD4 9 0 of treated cells.
(§5) Cytotoxicity was expressed as the 50% cytotoxic concentration (CC5 0), representing the concentration of sample required to reduce cell viability by 50% relative to that of the untreated control.
In general terms: Tetrazolium dyes change colour on reduction, which living cells bring about.

In test [3] the test system is TOV-21G: human ovarian adenocarcinoma cells. The test can be described thus: MTT cytotoxicity assay on TOV-21G cells. It is filed as cell-based. To be noted: for IC50: Homo sapiens, TOV21G, MTT, 72 h incubation, n = 3, NA: noncytotoxic at the concentrations tested; for SI (TOV-21G): IC50 MRC-5/IC50 TOV-21G. Here is the method:
as §1, §2, §3, §4, §5

In test [4] the test system is MRC-5: human lung fibroblast cells. The experiment in a line: MTT cytotoxicity assay on MRC-5 cells. It is filed as cell-based. To be noted: MRC5, 24 h incubation, n = 3, ± standard deviation. Here is the method: as §1, §2, §3, §4, §5
Test [5] concerns T24: human urinary bladder carcinoma cells. The experiment in a line: MTT cytotoxicity assay on T24 cells. To be noted: for IC50: Homo sapiens, T-24, MTT, 48 h incubation, n = 3, NA: noncytotoxic at the concentrations tested; for SI (T24): IC50 MRC-5/IC50 T24. It is filed as cell-based. Here is the method: as §1, §2, §3, §4, §5
Test [6] deals with HeLa: human cervical adenocarcinoma cells. The experiment in a line: MTT cytotoxicity assay on HeLa cells. It is filed as cell-based. To be noted: for IC50: Homo sapiens, HeLa, MTT, 72 h incubation, n = 3, NA: noncytotoxic at the concentrations tested; for SI (HeLa): IC50 MRC-5/IC50 HeLa. Here is the method: as §1, §2, §3, §4, §5
For test [7], the system named is HepG2: human liver hepatocellular carcinoma cells. On the set-up: method as in PMID 37944413. To be noted: hit compound, earlier study of the group; read-out: IC50 HepG2 (earlier work); cited from earlier work.
The next test concerns HepG2 cells. On the set-up: method as in PMID 37944413. To be noted: hit compound, earlier study of the group; cited from earlier work.

Where two headings read alike, the source gives them in different places.

By IC50 is commonly meant the concentration that gives 50% inhibition.

With `C=CC(C)(C)c1cc(/C=C/C(=O)c2ccc(O)cc2)c(OC)cc1O` [licochalcone A], the “migration and invasion of human hepatocellular carcinoma (HCC) cells” value in test [1] is “effectively inhibited migration and invasion”.

As to `CCCc1cc(OC)c(O)c(C(=O)/C=C/c2ccc(C)cc2)c1` [compound 16, (E)-1-(2-Hydroxy-3-methoxy-5-propylphenyl)-3-(p-tolyl)-prop-2-en-1-one], in test [2], the IC50 came out at 6.6 ± 1.4 µM and the “SI (HepG2)” value was 1.1. In test [3], the IC50 amounted to 10.9 ± 1.5 µM and the “SI (TOV-21G)” value was determined as 0.7. Also, in test [4], the IC50 is 7.7 ± 1.5 µM. Besides, in test [5], the 50% inhibitory concentration (IC50) worked out at 17.1 ± 2.1 µM and the “SI (T24)” value is recorded as 0.4. Besides, in test [6], the IC50 was 12.8 ± 1.3 µM and the “SI (HeLa)” value was found to be 0.6.

Take `CCCc1cc(/C=C/C(=O)c2ccc(O)cc2)c(O)c(OC)c1` [compound 10, (E)-3-(2-Hydroxy-3-methoxy-5-propylphenyl)-1-(4-hydroxyphenyl)-prop-2-en-1-one]: the IC50 is 18.9 ± 1.6 µM in test [2]; 7.2 ± 1.2 µM in test [3]; 5 ± 1.3 µM in test [4]; 34.9 ± 1.4 µM in test [5]; 17.9 ± 2 µM in test [6]. Also, the “SI (HepG2)” value in test [2] came out at 0.2. Besides, the “SI (TOV-21G)” value in test [3] was 0.7. In addition, in test [5], the “SI (T24)” value is recorded as 0.1. The “SI (HeLa)” value in test [6] worked out at 0.2.

For `CCCc1cc(/C=C/C(=O)c2ccc(C)cc2)c(O)c(OC)c1` [compound 1], the half-inhibitory concentration (IC50) is 4.2 ± 1.3 µM in test [2]; 7.2 ± 1.3 µM in test [3]; 4.25 µM in test [7]; 47.2 ± 1.3 µM in test [4]; more than 161 µM in test [5]. Further, the “SI (HepG2)” value in test [2] amounted to 11.1. The “SI (TOV-21G)” value in test [3] came to 6.5. The “SI (T24)” value in test [5] is reported as less than 0.2. In addition, the “HepG2 cell migration (earlier work)” value with HepG2 cells was “inhibiting HepG2 cell migration”.

As for `CCCc1cc(OC)c(O)c(C(=O)/C=C/c2ccc(O)cc2)c1` [compound 17, (E)-1-(2-Hydroxy-3-methoxy-5-propylphenyl)-3-(4-hydroxyphenyl)-prop-2-en-1-one], in test [2], the IC50 was 19.4 ± 1.4 µM and the “SI (HepG2)” value worked out at 0.6. Moreover, in test [3], the IC50 was 39 ± 1.5 µM and the “SI (TOV-21G)” value was found to be 0.3. The IC50 in test [4] came to 12.7 ± 1.4 µM. In addition, in test [5], the IC50 was determined as 36.4 ± 1.5 µM and the “SI (T24)” value is 0.3. In addition, in test [6], the 50% inhibitory concentration (IC50) was determined as 114 ± 2.1 µM and the “SI (HeLa)” value is 0.1.

On to `CCCc1cc(OC)c(O)c(C(=O)/C=C/c2ccccc2)c1` [compound 15, (E)-1-(2-Hydroxy-3-methoxy-5-propylphenyl)-3-phenylprop-2-en-1-one], for which, in test [2], the IC50 was found to be 16.1 ± 1.2 µM and the “SI (HepG2)” value came to 1.1. Moreover, in test [3], the IC50 worked out at 5.4 ± 1.2 µM and the “SI (TOV-21G)” value is recorded as 3.3. Besides, in test [4], the IC50 amounted to 18.4 ± 1.9 µM. In test [5], the IC50 was 18.4 ± 1.9 µM and the “SI (T24)” value was found to be 1. In test [6], the IC50 is 13.7 ± 1.5 µM and the “SI (HeLa)” value worked out at 1.3.

As for `COc1cc([N+](=O)[O-])cc(/C=C/C(=O)c2ccc(C)cc2)c1O` [compound 7, (E)-3-(2-Hydroxy-3-methoxy-5-nitrophenyl)-1-(p-tolyl)-prop-2-en-1-one], the IC50 in test [2] is 16.6 ± 1.5 µM; in test [3], 23.8 ± 2.8 µM; in test [4], 28.1 ± 1.3 µM; in test [5], 104 ± 1.9 µM; in test [6], 26.6 ± 1.8 µM. For the same compound, the “SI (HepG2)” value in test [2] was 1.6. The “SI (TOV-21G)” value in test [3] is 1.1. Further, the “SI (T24)” value in test [5] is recorded as 0.2. In addition, the “SI (HeLa)” value in test [6] turned out to be 1.0.

The values are drawn from article PMC12713470, “Design and Synthesis of Novel Chalcone Derivatives Targeting Bladder and Liver Cancer: Cytotoxicity Evaluation and Preliminary Mechanistic Studies” (ACS Omega, 2025).
